Experimental data taken from US20260317344A1, “EGFR INHIBITORS FOR TREATING DISEASE” (BLOSSOMHILL THERAPEUTICS, INC., priority 2023, published 2026).
pIC50: −log10 of the molar value.

Legend:
HCC827 cells = assay: 5-Day CellTiter Glo (CTG) cell proliferation assay, HCC827; assay type: cell-based; settings: Homo sapiens; HCC827 cells (d746-750 EGFR), 5-day CTG proliferation, 120 hours; read-out: HCC827 IC50
Outline: (§1)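 Proliferation of EGFR-driven NSCLC cells was scored as CellTiter-Glo 2.0 luminescence after a 5-day (120 h) incubation with compounds in 9 doses. IC50 values came from the dose-response curves.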

EGFR (D746-750/C797S) = EGFR (D746-750/C797S) (Homo sapiens, UniProt P00533, C797S/DEL746-750); assay: HotSpot radiometric kinase assay, inhibition of EGFR 746-750/C797S mutant; assay type: biochemical; settings: 33P ATP, room temperature, 120 m
Sequence of EGFR (D746-750/C797S) (P00533 with tags, fused parts or gaps DEL746-750/C797S): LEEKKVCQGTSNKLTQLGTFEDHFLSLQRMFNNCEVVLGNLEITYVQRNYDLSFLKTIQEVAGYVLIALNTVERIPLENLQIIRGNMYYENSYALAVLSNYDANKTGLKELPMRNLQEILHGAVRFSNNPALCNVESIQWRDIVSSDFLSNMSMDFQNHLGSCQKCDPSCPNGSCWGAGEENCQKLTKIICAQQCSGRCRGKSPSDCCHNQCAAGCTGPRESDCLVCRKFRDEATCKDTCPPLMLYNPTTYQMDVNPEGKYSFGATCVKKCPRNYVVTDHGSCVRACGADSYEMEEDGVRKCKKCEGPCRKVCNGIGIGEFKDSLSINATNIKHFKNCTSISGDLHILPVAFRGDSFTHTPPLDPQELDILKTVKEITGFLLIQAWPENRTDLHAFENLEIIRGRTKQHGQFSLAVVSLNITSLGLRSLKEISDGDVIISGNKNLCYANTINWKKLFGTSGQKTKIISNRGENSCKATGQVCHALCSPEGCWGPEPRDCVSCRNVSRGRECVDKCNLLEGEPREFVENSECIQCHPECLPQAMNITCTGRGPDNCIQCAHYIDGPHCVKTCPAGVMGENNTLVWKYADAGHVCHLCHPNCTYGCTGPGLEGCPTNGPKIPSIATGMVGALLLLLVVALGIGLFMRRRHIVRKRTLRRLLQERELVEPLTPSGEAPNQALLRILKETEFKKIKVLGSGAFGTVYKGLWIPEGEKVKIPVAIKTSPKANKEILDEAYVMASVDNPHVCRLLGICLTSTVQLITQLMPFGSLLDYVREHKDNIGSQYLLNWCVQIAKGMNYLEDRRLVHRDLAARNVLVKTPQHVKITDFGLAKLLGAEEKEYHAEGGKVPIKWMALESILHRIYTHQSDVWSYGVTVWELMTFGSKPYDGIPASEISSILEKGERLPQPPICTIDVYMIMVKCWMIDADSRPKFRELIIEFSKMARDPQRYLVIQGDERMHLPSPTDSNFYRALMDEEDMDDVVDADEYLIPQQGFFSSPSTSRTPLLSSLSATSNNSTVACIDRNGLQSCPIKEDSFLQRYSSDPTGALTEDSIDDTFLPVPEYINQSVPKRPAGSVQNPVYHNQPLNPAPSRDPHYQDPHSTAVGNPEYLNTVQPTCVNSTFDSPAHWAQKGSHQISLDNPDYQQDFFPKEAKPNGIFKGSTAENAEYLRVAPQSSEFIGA
Outline: (§2)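 Radiometric filter-binding format: ATP plus 33P-ATP ([…]) was added about 20 min after compound to kinase and substrate in HEPES pH 7.5 buffer with Mg2+, EGTA, Brij35, BSA, vanadate, DTT and 1% DMSO. After 120 min at room temperature, reactions were spotted on P81 paper and washed in phosphoric acid; IC50 values fitted.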

NCI-H1975 cells = assay: 5-Day CellTiter Glo (CTG) cell proliferation assay, NCI-H1975; assay type: cell-based; settings: Homo sapiens; NCI-H1975 cells (L858R/T790M EGFR), 5-day CTG proliferation, 120 hours; read-out: H1975 IC50
Outline: as §1

[1] = biological target: T1, pEGFR, NCI-H1975 cells (L858R/T790M EGFR) (Homo sapiens, UniProt P00533, L858R/T790M); assay: Cellular EGFR phosphorylation assay (LANCE Ultra TR-FRET) in NCI-H1975 cells; assay type: cell-based; settings: 4 hours at 37° C., read-out: H1975 pEGFR IC50
T1 construct: pEGFR (Tyr1068) TR-FRET
T1 sequence (P00533 25-1210 T790M/L858R): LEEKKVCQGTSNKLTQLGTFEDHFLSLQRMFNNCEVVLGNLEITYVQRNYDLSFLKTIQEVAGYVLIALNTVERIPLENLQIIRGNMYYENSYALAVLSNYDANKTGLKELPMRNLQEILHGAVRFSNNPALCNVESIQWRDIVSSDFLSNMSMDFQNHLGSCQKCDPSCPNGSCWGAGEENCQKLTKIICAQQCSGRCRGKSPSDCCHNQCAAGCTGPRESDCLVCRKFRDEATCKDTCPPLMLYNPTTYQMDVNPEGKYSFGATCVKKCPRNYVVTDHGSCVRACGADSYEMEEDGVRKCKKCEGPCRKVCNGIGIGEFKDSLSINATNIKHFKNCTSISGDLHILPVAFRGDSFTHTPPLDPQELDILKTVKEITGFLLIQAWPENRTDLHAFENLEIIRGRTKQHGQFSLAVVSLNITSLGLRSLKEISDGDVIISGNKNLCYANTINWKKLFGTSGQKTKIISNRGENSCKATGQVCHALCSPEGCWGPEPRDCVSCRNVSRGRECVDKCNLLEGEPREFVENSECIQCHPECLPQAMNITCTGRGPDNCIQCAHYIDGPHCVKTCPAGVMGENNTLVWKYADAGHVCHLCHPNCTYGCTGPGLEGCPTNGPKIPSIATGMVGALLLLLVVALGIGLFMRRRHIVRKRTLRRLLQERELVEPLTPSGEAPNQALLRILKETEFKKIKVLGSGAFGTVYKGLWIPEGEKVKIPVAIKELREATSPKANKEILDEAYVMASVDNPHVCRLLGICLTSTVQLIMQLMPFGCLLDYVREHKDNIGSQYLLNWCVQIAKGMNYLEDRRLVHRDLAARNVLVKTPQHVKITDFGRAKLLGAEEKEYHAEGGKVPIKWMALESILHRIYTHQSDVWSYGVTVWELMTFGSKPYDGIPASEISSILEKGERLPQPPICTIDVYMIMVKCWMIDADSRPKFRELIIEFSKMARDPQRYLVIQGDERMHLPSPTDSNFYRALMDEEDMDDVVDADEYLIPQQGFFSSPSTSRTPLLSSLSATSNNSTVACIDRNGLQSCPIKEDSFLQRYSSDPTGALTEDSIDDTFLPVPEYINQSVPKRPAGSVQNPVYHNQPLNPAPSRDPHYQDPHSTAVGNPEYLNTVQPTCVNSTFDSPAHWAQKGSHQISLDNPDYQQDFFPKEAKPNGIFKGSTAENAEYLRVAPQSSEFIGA
Outline: (§3)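 IC50 values come from TR-FRET detection of EGFR phosphorylated at Tyr1068 in whole-cell lysates. Compound exposure lasts 4 h at 37 °C across nine 3-fold concentrations, and the wildtype-amplified A431 line receives 40 ng/mL EGF during the last 10 minutes.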

PC-9 cells = assay: 5-Day CellTiter Glo (CTG) cell proliferation assay, PC-9; assay type: cell-based; settings: Homo sapiens; PC-9 cells (d746-750 EGFR), 5-day CTG proliferation, 120 hours; read-out: PC-9 IC50
Outline: as §1

[2] = test system: BaF3 cells with engineered EGFR d746-750/T790M; assay: 3-Day CellTiter Glo (CTG) cell proliferation assay, BaF3 EGFR d746-750/T790M; assay type: cell-based; settings: Mus musculus; BaF3 EGFR d746-750/T790M cells, 3-day CTG proliferation, 72 hours
Outline: (§4)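 Luminescent ATP read-out (CellTiter-Glo 2.0) after 72 h compound exposure gives IC50 values. BaF3 transgenic cells, one thousand per well, received a nine-dose series and were kept at 37 °C under 5% CO2.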

[3] = test system: BaF3 cells with engineered EGFR L858R/T790M/C797S; assay: 3-Day CellTiter Glo (CTG) cell proliferation assay, BaF3 EGFR L858R/T790M/C797S; assay type: cell-based; settings: Mus musculus, 3-day CTG proliferation, 72 hours
Outline: as §4

EGFR (D746-750) = EGFR (D746-750) (Homo sapiens, UniProt P00533, DEL746-750); assay: HotSpot radiometric kinase assay, inhibition of EGFR 746-750 mutant; assay type: biochemical; settings: 33P ATP, room temperature, 120 m
Outline: as §2

EGFR (D770_N771insNPG) = EGFR (D770_N771insNPG) (Homo sapiens, UniProt P00533, INS770NPG); assay: HotSpot radiometric kinase assay, inhibition of EGFR (D770_N771insNPG) mutant; assay type: biochemical; settings: 33P ATP, room temperature, 120 m
Sequence of EGFR (D770_N771insNPG) (P00533 with tags, fused parts or gaps INS770NPG limits assumed): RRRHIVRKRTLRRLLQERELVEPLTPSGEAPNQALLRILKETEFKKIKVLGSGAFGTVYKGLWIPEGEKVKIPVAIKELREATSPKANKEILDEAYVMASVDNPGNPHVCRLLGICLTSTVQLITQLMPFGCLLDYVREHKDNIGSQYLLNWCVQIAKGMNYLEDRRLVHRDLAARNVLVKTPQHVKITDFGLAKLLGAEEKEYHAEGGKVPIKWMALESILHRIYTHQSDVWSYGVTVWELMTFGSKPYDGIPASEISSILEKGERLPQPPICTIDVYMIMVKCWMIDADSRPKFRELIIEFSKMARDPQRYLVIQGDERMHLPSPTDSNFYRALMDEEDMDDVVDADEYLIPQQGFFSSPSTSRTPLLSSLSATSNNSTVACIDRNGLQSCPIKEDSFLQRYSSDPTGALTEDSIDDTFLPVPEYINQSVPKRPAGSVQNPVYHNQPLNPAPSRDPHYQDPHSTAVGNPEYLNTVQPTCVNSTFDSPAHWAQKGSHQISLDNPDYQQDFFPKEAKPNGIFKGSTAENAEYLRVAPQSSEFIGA
Outline: as §2

[4] = biological target: T2, pEGFR, A431 cells (wildtype EGFR) (Homo sapiens, UniProt P00533); assay: Cellular EGFR phosphorylation assay (LANCE Ultra TR-FRET) in A431 cells; assay type: cell-based; settings: 4 hours at 37° C., 40 ng/mL EGF for the final 10 minutes, read-out: A431 pEGFR IC50
T2 construct: pEGFR (Tyr1068) TR-FRET
T2 sequence (P00533 25-1210): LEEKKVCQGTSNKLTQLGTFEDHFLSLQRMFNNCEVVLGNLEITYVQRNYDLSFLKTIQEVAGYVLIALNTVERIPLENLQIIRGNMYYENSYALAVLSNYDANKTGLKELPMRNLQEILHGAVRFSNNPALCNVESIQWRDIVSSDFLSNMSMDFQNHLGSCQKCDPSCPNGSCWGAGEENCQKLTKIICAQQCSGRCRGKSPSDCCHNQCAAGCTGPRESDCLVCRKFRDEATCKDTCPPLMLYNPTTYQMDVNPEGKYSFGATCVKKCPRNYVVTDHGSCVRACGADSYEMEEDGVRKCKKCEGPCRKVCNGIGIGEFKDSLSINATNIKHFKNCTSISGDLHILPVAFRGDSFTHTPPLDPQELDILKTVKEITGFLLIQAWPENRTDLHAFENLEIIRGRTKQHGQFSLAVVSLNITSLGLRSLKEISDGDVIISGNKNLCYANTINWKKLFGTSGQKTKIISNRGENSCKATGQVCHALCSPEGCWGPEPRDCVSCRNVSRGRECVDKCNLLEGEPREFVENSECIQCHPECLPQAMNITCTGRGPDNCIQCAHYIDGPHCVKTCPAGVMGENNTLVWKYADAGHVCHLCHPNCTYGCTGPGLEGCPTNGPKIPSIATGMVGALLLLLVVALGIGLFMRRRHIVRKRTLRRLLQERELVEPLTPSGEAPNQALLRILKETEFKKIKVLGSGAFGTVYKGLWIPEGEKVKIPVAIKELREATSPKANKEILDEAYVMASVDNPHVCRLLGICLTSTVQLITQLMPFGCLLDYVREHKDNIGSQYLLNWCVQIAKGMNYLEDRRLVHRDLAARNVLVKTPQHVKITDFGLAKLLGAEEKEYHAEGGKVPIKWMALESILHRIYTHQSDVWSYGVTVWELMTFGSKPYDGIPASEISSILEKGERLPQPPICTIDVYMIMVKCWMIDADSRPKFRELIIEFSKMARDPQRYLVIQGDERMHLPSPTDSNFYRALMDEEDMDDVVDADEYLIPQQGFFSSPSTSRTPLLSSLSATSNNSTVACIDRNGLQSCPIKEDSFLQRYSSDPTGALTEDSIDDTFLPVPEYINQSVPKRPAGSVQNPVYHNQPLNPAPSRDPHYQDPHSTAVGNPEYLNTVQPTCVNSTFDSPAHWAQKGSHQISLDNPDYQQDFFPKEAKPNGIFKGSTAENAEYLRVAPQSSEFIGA
Outline: as §3

[5] = test system: BaF3 cells with engineered EGFR L858R/C797S; assay: 3-Day CellTiter Glo (CTG) cell proliferation assay, BaF3 EGFR L858R/C797S; assay type: cell-based; settings: Mus musculus, 3-day CTG proliferation, 72 hours
Outline: as §4

EGFR (L858R/T790M/C797S) = EGFR (L858R/T790M/C797S) (Homo sapiens, UniProt P00533, C797S/L858R/T790M); assay: HotSpot radiometric kinase assay, inhibition of EGFR L858R/T790M/C797S mutant; assay type: biochemical; settings: 33P ATP, room temperature, 120 m
Outline: as §2

[6] = biological target: T3, pEGFR, PC-9 cells (d746-750 EGFR) (Homo sapiens, UniProt P00533, DEL746-750); assay: Cellular EGFR phosphorylation assay (LANCE Ultra TR-FRET) in PC-9 cells; assay type: cell-based; settings: 4 hours at 37° C., read-out: PC-9 pEGFR IC50
T3 construct: pEGFR (Tyr1068) TR-FRET
Outline: as §3

SMILES	pIC50 (HCC827 cells)	pIC50 (EGFR (D746-750/C797S))	pIC50 (NCI-H1975 cells)	pIC50 [1]	pIC50 (PC-9 cells)	pIC50 [2]	pIC50 [3]	pIC50 (EGFR (D746-750))	pIC50 (EGFR (D770_N771insNPG))	pIC50 [4]	pIC50 [5]	pIC50 (EGFR (L858R/T790M/C797S))	pIC50 [6]
Cc1nn(C)c2c1-c1cc3c(n[nH]c3cn1)/C=C/c1c(OCC#N)nn([C@@H](C)CO)c1CN(C)C[C@H](C)O2 [Ex. 53, {[(10S,17E)-14-[(2S)-1-hydroxypropan-2-yl]-6,8,10,12-tetramethyl-2,10,11,12,13,14-hexahydro-8H-5,3-(azenometheno)tripyrazolo[3,4-f:3′,4′-j:4″,3″-n][1,4]oxazacyclopentadecin-16-yl]oxy}acetonitrile]	8.96	8.95	7.80	8.06	8.53	8.37	8.80	9.43	9.35	7.68	9.74	9.17	8.59
CCOc1nn(CCO)c2c1/C=C/c1n[nH]c3cnc(cc13)-c1c(C)nn(C)c1O[C@@H](C)CN(C)C2 [Ex. 44, 2-[(10S,17E)-16-ethoxy-6,8,10,12-tetramethyl-2,8,10,11,12,13-hexahydro-14H-5,3-(azenometheno)tripyrazolo[3,4-f:3′,4′-j:4″,3″-n][1,4]oxazacyclopentadecin-14-yl]ethan-1-ol]	9.54	9.21	8.98	8.72	9.08	8.93	9.24	9.59	9.77	8.00	10.30	9.24	9.00
Cc1nn(C)c2c1-c1cc3c(n[nH]c3cn1)/C=C/c1c(OCC#N)nn(CCO)c1CN1CCC[C@@H]1C(C)O2 (single isomer, unassigned) [Ex. 50]	9.39	9.17	8.26	8.46	9.29	8.52	8.94	9.72	9.68	7.72	9.92	9.41	8.97
CCOc1nn([C@@H](C)CO)c2c1/C=C/c1n[nH]c3cnc(cc13)-c1c(C)nn(C)c1O[C@H](C)CN(C)C2 [Ex. 35, (2S)-2-[(10R,17E)-16-ethoxy-6,8,10,12-tetramethyl-2,8,10,11,12,13-hexahydro-14H-5,3-(azenometheno)tripyrazolo[3,4-f:3′,4′-j:4″,3″-n][1,4]oxazacyclopentadecin-14-yl]propan-1-ol]	9.29	9.18	8.52	8.90	8.59	9.34	9.05	9.66	9.62	7.82	9.85	9.39	8.81
Cc1nn([C@@H](C)CO)c2c1/C=C/c1n[nH]c3c(C)nc(cc13)-c1c(C)nn(C)c1O[C@@H](C)CN(C)C2 [Ex. 57, (2S)-2-[(10S,17E)-6,8,10,12,16,20-hexamethyl-2,8,10,11,12,13-hexahydro-14H-5,3-(azenometheno)tripyrazolo[3,4-f:3′,4′-j:4″,3″-n][1,4]oxazacyclopentadecin-14-yl]propan-1-ol]	8.07	8.86	7.17	7.98	7.66	7.21	8.75	9.10	8.32	7.58	9.16	9.07	7.95
Cc1nn(C)c2c1-c1cc3c(n[nH]c3cn1)/C=C/c1c(C#N)nn([C@@H](C)CO)c1CN(C)C[C@H](C)O2 [Ex. 48, (10S,17E)-14-[(2S)-1-hydroxypropan-2-yl]-6,8,10,12-tetramethyl-2,10,11,12,13,14-hexahydro-8H-5,3-(azenometheno)tripyrazolo[3,4-f:3′,4′-j:4″,3″-n∥1,4]oxazacyclopentadecine-16-carbonitrile]	8.68	9.20	7.25	8.21	7.75	7.77	8.92	9.74	9.64	7.43	9.80	9.43	8.50
CCOc1nn(CCO)c2c1/C=C/c1n[nH]c3cnc(cc13)-c1c(C)nn(C)c1O[C@@H](C)[C@H]1CCCN1C2 [Ex. 32, 2-[(8aR,9S,19E)-1-ethoxy-9,11,13-trimethyl-7,8,8a,9,11,17-hexahydro-6H-14,16-(azenometheno)tripyrazolo[3,4-f:3′,4′-j:4″,3″-n]pyrrolo[2,1-c][1,4]oxazacyclopentadecin-3(4H)-yl]ethan-1-ol]	9.60	8.96	8.86	8.83	9.27	9.32	9.06	9.48	9.20	8.02	10.15	9.11	8.97
CCOc1nn(CCO)c2c1/C=C/c1n[nH]c3c(C)nc(cc13)-c1cnn(C)c1O[C@H](C)CN(C)C2 [Ex. 38, 2-[(10R,17E)-16-ethoxy-8,10,12,20-tetramethyl-2,8,10,11,12,13-hexahydro-14H-5,3-(azenometheno)tripyrazolo[3,4-f:3′,4′-j:4″,3″-n][1,4]oxazacyclopentadecin-14-yl]ethan-1-ol]	8.10	9.27	7.57	8.51	7.31	7.66	8.40	9.62	8.72	7.32	8.19	9.60	7.73
